The assay has as its system P388 leukemia ip, CD2F1 mice, survival T/C. Briefly: NCI In Vivo Anticancer Drug Screen. Data for tumor model P388 Leukemia (intraperitoneal) in CD2F1 (CDF1) mice. The following applies: endpoint: median survival time, higher = longer survival. The method in brief:
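Mice carrying the transplanted tumor received test compound or vehicle. Survival was recorded in each group, and the value is the treated-group measurement divided by that of the vehicle-treated control group.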

[1] abbreviates: dose: 50.0 mg/kg/injection, schedule: Q01DX005 (ip), vehicle: Klucel (hydroxypropylcellulose) (HPC).
[2] abbreviates: dose: 100.0 mg/kg/injection, schedule: Q01DX005 (ip), vehicle: Klucel (hydroxypropylcellulose) (HPC).
Where [3] appears, read: dose: 200.0 mg/kg/injection, schedule: Q01DX005 (ip), vehicle: Klucel (hydroxypropylcellulose) (HPC).
The mark [4] stands for this setting: dose: 50.0 mg/kg/injection, schedule: Q01DX009 (ip), vehicle: saline.
Setting [5] is: dose: 100.0 mg/kg/injection, schedule: Q01DX009 (ip), vehicle: saline.
[6] abbreviates: dose: 200.0 mg/kg/injection, schedule: Q01DX009 (ip), vehicle: saline.
Setting [7] is: dose: 60.0 mg/kg/injection, schedule: Q01DX005 (ip), vehicle: saline with Tween-80.
[8] abbreviates: dose: 120.0 mg/kg/injection, schedule: Q01DX005 (ip), vehicle: saline with Tween-80.
Setting [9] is: dose: 50.0 mg/kg/injection, schedule: Q01DX005 (ip), vehicle: saline with Tween-80.
[10] abbreviates: dose: 100.0 mg/kg/injection, schedule: Q01DX005 (ip), vehicle: saline with Tween-80.
Where [11] appears, read: dose: 200.0 mg/kg/injection, schedule: Q01DX005 (ip), vehicle: saline with Tween-80.
Setting [12] is: dose: 25.0 mg/kg/injection, schedule: Q01DX009 (ip), vehicle: saline with Tween-80.
Setting [13] is: dose: 50.0 mg/kg/injection, schedule: Q01DX009 (ip), vehicle: saline with Tween-80.
[14] abbreviates: dose: 100.0 mg/kg/injection, schedule: Q01DX009 (ip), vehicle: saline with Tween-80.
Setting [15] is: dose: 200.0 mg/kg/injection, schedule: Q01DX009 (ip), vehicle: saline with Tween-80.
Where [16] appears, read: dose: 15.0 mg/kg/injection, schedule: Q01DX005 (ip), vehicle: saline with Tween-80.
Setting [17] is: dose: 30.0 mg/kg/injection, schedule: Q01DX005 (ip), vehicle: saline with Tween-80.
[18] abbreviates: dose: 50.0 mg/kg/injection, schedule: Q01DX009 (ip), vehicle: Klucel (hydroxypropylcellulose) (HPC).
Setting [19] is: dose: 100.0 mg/kg/injection, schedule: Q01DX009 (ip), vehicle: Klucel (hydroxypropylcellulose) (HPC).
The mark [20] stands for this setting: dose: 200.0 mg/kg/injection, schedule: Q01DX009 (ip), vehicle: Klucel (hydroxypropylcellulose) (HPC).

The structures appear in SMILES notation. Values joined by “and” are separate entries in the source; they are usually repeats but may differ in a detail not shown here. Equal values may be shown once. Toxic doses and inconclusive results are not listed.

On to `O=c1cccccc1O.O=c1cccccc1O.O=c1cccccc1O.[Ru]`, for which the T/C runs as follows: under setting [1], 96 % of control; under setting [2], 100 % of control; under setting [3], 116 % of control.
As to `O=S(=O)(Cl)C(F)(F)C(F)(F)C(F)(F)C(F)(F)F`, the T/C by setting is: under setting [4], 102 % of control; under setting [5], 103 % of control; under setting [6], 88 % of control.
For `CCC1(c2ccc(C)cc2)C(=O)NC(=S)NC1=O`, the T/C by setting is: under setting [7], 102 % of control; under setting [8], 94 % of control.
`CC(CO)(CO)N(CCO)CCO`: the T/C was 101 % of control (dose: 50.0 mg/kg/injection, schedule: Q01DX005 (ip), vehicle: saline); 101 % of control (dose: 100.0 mg/kg/injection, schedule: Q01DX005 (ip), vehicle: saline); 99 % of control (dose: 200.0 mg/kg/injection, schedule: Q01DX005 (ip), vehicle: saline).
Consider `CSc1nc(SC)c2cnn(Cc3ccccc3)c2n1`, for which the T/C reads like this: under setting [9], 96 % of control; under setting [10], 95 % of control; under setting [11], 93 % of control.
For `CC(C)(CCC(=S)N1CCOCC1)c1ccccc1`, the T/C under setting [12] was 111 % of control, the T/C under setting [13] was 96 % of control, the T/C under setting [14] is 105 % of control and the T/C under setting [15] is 105 % of control.
For the compound `OCC12C=COC1OC2(c1ccccc1)c1ccccc1` (stereo not drawn), the T/C was 100 % of control under setting [16]; 95 % of control under setting [17]; 89 % of control and 98 % of control under setting [7].
For `O=[N+]([O-])c1ccc(CSC(=S)Nc2ccc(Cl)c(Cl)c2)cc1`, the T/C runs as follows: under setting [12], 106 % of control; (dose: 25.0 mg/kg/injection, schedule: Q01DX009 (ip), vehicle: saline) 109 % of control; under setting [13], 114 % of control; under setting [4], 107 % of control; (dose: 50.0 mg/kg/injection, schedule: Q01DX009 (ip), vehicle: suspension in saline) 103 % of control; under setting [14], 115 % of control. Moreover, the T/C under setting [5] is 109 % of control; the T/C (dose: 100.0 mg/kg/injection, schedule: Q01DX009 (ip), vehicle: suspension in saline) was 113 % of control; the T/C under setting [15] is 97 % of control; the T/C under setting [6] is 116 % of control; the T/C (dose: 200.0 mg/kg/injection, schedule: Q01DX009 (ip), vehicle: suspension in saline) is 115 % of control.
As to `CCCCCCCCCCCCCCCC[N+]1(CC)CCSCC1`, the T/C reads like this: under setting [4], 100 % of control; under setting [5], 96 % of control; under setting [6], 100 % of control.
With `O=[N+]([O-])C1(Cl)CCC(Cl)([N+](=O)[O-])CC1` (stereo not drawn), the T/C runs as follows: (dose: 100.0 mg/kg/injection, schedule: Q01DX001 (ip), vehicle: Klucel (hydroxypropylcellulose) (HPC)) 100 % of control; (dose: 200.0 mg/kg/injection, schedule: Q01DX001 (ip), vehicle: Klucel (hydroxypropylcellulose) (HPC)) 104 % of control.
On to `CC(=O)Nc1ccc(C(=O)O)c([N+](=O)[O-])c1`, for which the T/C reads like this: (dose: 25.0 mg/kg/injection, schedule: Q01DX009 (ip), vehicle: Klucel (hydroxypropylcellulose) (HPC)) 100 % of control; under setting [18], 107 % of control; under setting [19], 102 % of control; under setting [20], 107 % of control.
For the compound `Cc1ccc2c(c1)CCCc1c-2nn(-c2ccccc2)c1-c1ccc(Cl)cc1`, the T/C under setting [9] was 86 % of control, the T/C under setting [10] was 92 % of control and the T/C under setting [11] is 90 % of control.
Regarding `Cc1cc(C2(c3cc(C)c(O)c(Br)c3)OS(=O)(=O)c3ccccc32)cc(Br)c1O`, the T/C by setting is: under setting [7], 99 % of control; under setting [8], 102 % of control; (dose: 240.0 mg/kg/injection, schedule: Q01DX005 (ip), vehicle: saline with Tween-80) 90 % of control.
Turning to `Nc1nc2c(ncn2[C@@H](CO)OC(CO)CO)c(=O)[nH]1`, the T/C is, setting by setting: under setting [1], 99 % of control; under setting [2], 98 % of control; under setting [3], 98 % of control.
Turning to `CC(O)c1cc(C(C)O)cc(C(C)O)c1` (stereo not drawn), the T/C reads like this: under setting [4], 95 % of control; under setting [5], 101 % of control; under setting [6], 99 % of control.
Turning to `CC(C)(C)c1ccc(C(=O)NNC(O)C(F)(F)F)cc1` (stereo not drawn), the T/C by setting is: (dose: 100.0 mg/kg/injection, schedule: Q04DX002 (ip), vehicle: Klucel (hydroxypropylcellulose) (HPC)) 101 % of control; (dose: 200.0 mg/kg/injection, schedule: Q04DX002 (ip), vehicle: Klucel (hydroxypropylcellulose) (HPC)) 103 % of control.
On to `c1ccc([P+](c2ccccc2)(c2ccccc2)c2ccccc2)cc1`, for which the T/C (dose: 0.63 mg/kg/injection, schedule: Q04DX003 (ip), vehicle: saline) was 100 % of control; the T/C (dose: 1.25 mg/kg/injection, schedule: Q04DX003 (ip), vehicle: saline) was 118 % of control; the T/C (dose: 2.5 mg/kg/injection, schedule: Q04DX003 (ip), vehicle: saline) was 122 % of control; the T/C (dose: 3.3 mg/kg/injection, schedule: Q04DX003 (ip), vehicle: saline) is 122 % of control.
Regarding `CC(=O)Nc1ccc(/C=C2\C(=O)Nc3ccccc32)cc1`, the T/C is, setting by setting: under setting [18], 99 % of control and 91 % of control; under setting [19], 87 % of control and 96 % of control; under setting [20], 89 % of control and 91 % of control.
On to `CC1=CC2N(C=C1)C(c1ccccc1)=NON2c1cc(C)ccn1` (stereo not drawn), for which the T/C is, setting by setting: (dose: 7.5 mg/kg/injection, schedule: Q01DX005 (ip), vehicle: saline with Tween-80) 91 % of control; under setting [16], 94 % of control; under setting [17], 91 % of control.
With `CCc1ccc(C(=O)N/N=C(\C)[C@]2(O)Cc3c(O)c4c(c(O)c3[C@@H](OC3CC(N)C(O)C(C)O3)C2)C(=O)c2c(OC)cccc2C4=O)cc1` (stereo partly drawn), the T/C runs as follows: (dose: 0.12 mg/kg/injection, schedule: Q01DX009 (ip), vehicle: water) 111 % of control; (dose: 1.0 mg/kg/injection, schedule: Q01DX009 (ip), vehicle: water) 154 % of control and 163 % of control; (dose: 2.0 mg/kg/injection, schedule: Q01DX009 (ip), vehicle: water) 160 % of control and 175 % of control; (dose: 4.0 mg/kg/injection, schedule: Q01DX009 (ip), vehicle: water) 151 % of control and 175 % of control; (dose: 8.0 mg/kg/injection, schedule: Q01DX009 (ip), vehicle: water) 86 % of control and 93 % of control.
For `Nc1ccn([C@@H]2C=C(CO)[C@@H](O)[C@H]2O)c(=O)n1`, the T/C (dose: 0.5 mg/kg/injection, schedule: Q01DX009 (ip), vehicle: saline) is 150 % of control; the T/C (dose: 1.0 mg/kg/injection, schedule: Q01DX009 (ip), vehicle: saline) was 188 % of control; the T/C (dose: 2.25 mg/kg/injection, schedule: Q01DX009 (ip), vehicle: saline) was 111 % of control and 87 % of control.
Turning to `CN1CCC/C1=C1/CCc2ccccc2C1=O`, the T/C by setting is: under setting [1], 103 % of control; under setting [2], 108 % of control; under setting [3], 107 % of control.
Regarding `COc1ccc(C(=O)c2ccc(OCCBr)cc2)c(O)c1`, the T/C under setting [9] is 92 % of control, the T/C under setting [10] was 88 % of control and the T/C under setting [11] is 88 % of control.
With `CCOC(=O)CC(C#N)(C#N)CC(=O)OCC`, the T/C under setting [9] was 101 % of control, the T/C under setting [10] was 107 % of control and the T/C under setting [11] is 106 % of control.
On to `CCOC(=O)C(C)(Br)C(=O)OCC`, for which the T/C reads like this: under setting [12], 118 % of control; under setting [13], 109 % of control; under setting [14], 109 % of control.
In the case of `COCN(C)N=Nc1ccc(C(=O)OC)cc1`, the T/C was 107 % of control (dose: 60.0 mg/kg/injection, schedule: Q01DX005 (ip), vehicle: Klucel (hydroxypropylcellulose) (HPC)); 101 % of control (dose: 120.0 mg/kg/injection, schedule: Q01DX005 (ip), vehicle: Klucel (hydroxypropylcellulose) (HPC)); 87 % of control (dose: 240.0 mg/kg/injection, schedule: Q01DX005 (ip), vehicle: Klucel (hydroxypropylcellulose) (HPC)).

The record behind these values is PubChem BioAssay AID330 (DTP/NCI, 2004).
